Source: patent US20100184790A1, “PYRROLO[2,3-B]PYRIDINE COMPOUNDS, AZAINDOLE COMPOUNDS USED FOR SYNTHESIZING SAID PYRROLO[2,3-B]PYRIDINE COMPOUNDS, METHODS FOR THE PRODUCTION THEREOF, AND USES THEREOF” (CENTRE NATIONAL DE LA RECHERCHE SCIENTIFIQUE, priority 2007, published 2010)
Read-outs that look alike come from different tables or passages of the source.

What was measured:
GSK-3α/β = GSK-3α/β kinase assay (GS-1 peptide); format: biochemical, porcine; details: 15 μM ATP, 30° C.
Protocol: After incubating at 30° C. for 30 (thirty) minutes, the 25 μl aliquots of the supernatant were treated as described above.

CK1δ/ε = CK1δ/ε kinase assay (CK1-specific peptide); format: biochemical, porcine; details: 15 μM ATP, 30° C.
Protocol: CK1δ/ε was purified from porcine brain by affinity chromatography on an immobilized axin fragment. It was assayed as described for CDK1 but using a CK1-specific peptide substrate.

DYRK1A = DYRK1A (Rattus norvegicus, UniProt Q63470); assay: DYRK1A kinase assay (myelin basic protein); format: biochemical; details: 15 μM ATP, 30° C., myelin basic protein; read-out: IC50 DYRK1A
SH-SY5Y cells = assay: Cell survival, MTS reduction, SH-SY5Y; format: cell-based; details: Homo sapiens
Protocol: The human neuroblastoma cell line SH-SY5Y was grown in a DMEM medium with L-glutamine originating from Invitrogen (Cergy Pontoise, France), antibiotics and 10% by volume of FCS originating from Invitrogen. […] These compounds were also tested at various concentrations with regard to their effects on SH-SY5Y and HEK293 cells. […] The IC50 values were calculated from the dose-response curves and are given in micromoles (mean±standard deviation of two independent measurements carried out in triplicate). […] The survival of the cells was estimated by the assaying of the degree of reduction of MTS induced by this exposure. […] The ICS© values were calculated from dose-response curves and are given in micromoles in table 3 below.

HCT116 (colon) = assay: Cell survival, MTS reduction, HCT116; format: cell-based; details: Homo sapiens, HCT-116; forty eight hours after addition; read-out: Survival of the cells (IC50, μM) (MTS reduction) HCT116 (colon)
Protocol: (§1) The viability of the cells was determined by measuring the reduction of 3-(4,5-dimethylthiazol-2-yl)-5-(3-carboxymethoxyphenyl)-2-(4-sulfophenyl)-2H/tetrazolium (MTS). The procedure was such as described in detail in Ribas J. et al., 2004, “Cell differentiation, caspase inhibition, and macromolecular synthesis blockage, but not BCL-2 or BCL-XL proteins, protect SH-SYS5 cells from apoptosis triggered by two CDK inhibitory drugs”, Exp. Cell Res., 2004, 195, 9-24.
(§2) The effects of meriolins 2 and 3 on the survival of various cell lines were also tested at various concentrations in order to determine their effects on eight different cell lines. The survival of the cells was expressed forty eight hours after the addition of each meriolin, using the MTS reduction test. The ICS© values were calculated from dose-response curves and are given in micromoles in table 3 below.

MDA-MB-231 (breast) = assay: Cell survival, MTS reduction, MDA-MB-231; format: cell-based; details: Homo sapiens, forty eight hours after addition, read-out: Survival of the cells (IC50, μM) (MTS reduction) MDA-MB-231 (breast)
Protocol: as §1, §2

PC3 (prostate) = assay: Cell survival, MTS reduction, PC3; format: cell-based; details: forty eight hours after addition; read-out: Survival of the cells (IC50, μM) (MTS reduction) PC3 (prostate)
Protocol: as §1, §2

Huh7 (hepatoma) = assay: Cell survival, MTS reduction, Huh7; format: cell-based; details: Homo sapiens, Huh-7; forty eight hours after addition; read-out: Survival of the cells (IC50, μM) (MTS reduction) Huh7 (hepatoma)
Protocol: as §1, §2

F1 (hepatoma) = assay: Cell survival, MTS reduction, F1; format: cell-based; details: forty eight hours after addition; read-out: Survival of the cells (IC50, μM) (MTS reduction) F1 (hepatoma)
Protocol: as §1, §2

[1] = system: HEK293 (embryonic kidney); assay: Cell survival, MTS reduction, HEK293; format: cell-based; details: Homo sapiens, forty eight hours after addition, read-out: Survival of the cells (IC50, μM) (MTS reduction) HEK293 (embryonic kidney)
Protocol: The HEK293 cells were grown in an MEM medium with Glutamax originating from Invitrogen, antibiotics and 10% by volume of FCS.
as §1
The effects of meriolins 2 and 3 on the survival of various cell lines were also tested at various concentrations in order to determine their effects on eight different cell lines. […] The ICS© values were calculated from dose-response curves and are given in micromoles in table 3 below.

[2] = system: Human foreskin fibroblasts; assay: Cell survival, MTS reduction, human foreskin fibroblasts; format: cell-based; details: Fibroblast, forty eight hours after addition, read-out: Survival of the cells (IC50, μM) (MTS reduction) Human foreskin fibroblasts
Protocol: as §1, §2

CDK1/cyclin B = CDK1/cyclin B kinase assay (histone H1, [γ-33P]-ATP); details: read-out: IC50 CDK1/cyclin B, 15 μM ATP, 30° C.
protein kinase hSGK1 = biological target: T1, protein kinase hSGK1 (Homo sapiens, UniProt O00141); details: from Angew. Chem. Int. Ed., 2005, 44, 6951-6956; cited from earlier work
T1 sequence (O00141 1-431): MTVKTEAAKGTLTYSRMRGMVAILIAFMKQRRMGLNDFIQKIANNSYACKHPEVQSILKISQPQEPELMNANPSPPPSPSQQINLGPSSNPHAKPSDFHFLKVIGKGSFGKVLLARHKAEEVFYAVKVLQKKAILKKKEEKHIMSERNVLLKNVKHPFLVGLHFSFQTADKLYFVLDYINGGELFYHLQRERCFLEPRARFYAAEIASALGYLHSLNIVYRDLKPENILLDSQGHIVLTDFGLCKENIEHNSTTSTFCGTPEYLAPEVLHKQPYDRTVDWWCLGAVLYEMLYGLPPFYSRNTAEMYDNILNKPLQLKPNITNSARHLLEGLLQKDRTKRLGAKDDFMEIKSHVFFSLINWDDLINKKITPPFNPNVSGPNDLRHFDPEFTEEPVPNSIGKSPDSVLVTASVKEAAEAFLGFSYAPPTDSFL

A4573 cells xenograft = assay: In vivo antitumor activity, A4573 xenograft; set-up: species or system athymic male nude mice; details: 50 mg/kg intraperitoneal once daily, versus control
Protocol: Athymic male nude mice (aged from 5 to 6 weeks) were obtained from the National Cancer Institute. The mice were housed in the animal facility of the Division of Comparative Medicine of Georgetown University. All the studies on the animals were carried out under protocols approved by the Animal Care and Use Committee of Georgetown University. The mice were inoculated by subcutaneous injection into the right posterior flank with 4×10^6 A4573 cells in 100 μl of Matrigel basic membrane matrix (Becton Dickinson). Xenografts were grown to a mean tumor volume of 129±30 mm^3. The compounds tested were first dissolved in either absolute methanol or DMSL (1 volume). A carrier solution was produced using a diluent containing 10% Tween 80, 20% N—N-dimethylacetamide and 70% polyethylene glycol 400 (Fisher Scientific, Pittsburgh, Pa.). The mice were randomly divided into two groups (six animals per group) and the treatment was initiated. […] At these times, the tumors were removed, measured and prepared for TUNEL assays. The primary tumor volumes were calculated by the formula V=(1/2)a×b^2, where a is the longest tumor axis and b is the shortest tumor axis. The values are given in the form of mean±standard deviation values in quantitative experiments. […]

[3] = 8 h, Table 3, forty eight hours after addition, read-out: Survival of the cells (IC50, μM) (MTS reduction) SH-SY5Y (neuroblastoma)
[4] = Table 2, exposed for 24 hours, read-out: IC50 survival of SH-SY5Y cells (MTS reduction)

IC50 (GSK-3α/β) [nM] | IC50 (CK1δ/ε) [nM] | IC50 (DYRK1A) [nM] | IC50 (CDK1/cyclin B) [nM] | SMILES | IC50 (SH-SY5Y cells; [3]) [µM] | IC50 (SH-SY5Y cells; [4]) [µM] | IC50 (HCT116 (colon)) [µM] | IC50 (MDA-MB-231 (breast)) [µM] | IC50 (PC3 (prostate)) [µM] | IC50 (Huh7 (hepatoma)) [µM] | IC50 (F1 (hepatoma)) [µM] | IC50 [1] [µM] | IC50 [2] [µM] | IC50 (SH-SY5Y cells; 24 h, read-out: IC50 survival of SH-SY5Y cells (MTS reduction)) [µM] | IC50 (protein kinase hSGK1) [nM] | mean tumor volume over time (FIG. 3) (A4573 cells xenograft)
400 | 50 | 35 | 57 | Nc1nccc(-c2c[nH]c3nccc(O)c23)n1 [Meriolin 2, 3-[(2-amino)pyrimidin-4-yl]-4-hydroxy-1H-pyrrolo[2,3-b]pyridine] | 0.41 | 0.41 | 0.08 | 1.8 | 17.3 | 1 | 2 | 2.6 | 20 | – | – | –
230 | 200 | 29 | 170 | COc1ccnc2[nH]cc(-c3ccnc(N)n3)c12 [Meriolin 3, 3-[(2-amino)pyrimidin-4-yl]-4-methoxy-1H-pyrrolo[2,3-b]pyridine] | 0.072 | 0.073 | 0.94 | 19 | 95 | 0.12 | 0.26 | 0.38 | 8 | – | – | only increases slightly over time

SMILES | IC50 (GSK-3α/β) [nM] | IC50 (CK1δ/ε) [nM] | IC50 (DYRK1A) [nM] | IC50 (CDK1/cyclin B) [nM] | IC50 (SH-SY5Y cells; [3]) [µM] | IC50 (SH-SY5Y cells; [4]) [µM] | IC50 (HCT116 (colon)) [µM] | IC50 (MDA-MB-231 (breast)) [µM] | IC50 (PC3 (prostate)) [µM] | IC50 (Huh7 (hepatoma)) [µM] | IC50 (F1 (hepatoma)) [µM] | IC50 [1] [µM] | IC50 [2] [µM] | IC50 (SH-SY5Y cells; 24 h, read-out: IC50 survival of SH-SY5Y cells (MTS reduction)) [µM] | IC50 (protein kinase hSGK1) [nM] | mean tumor volume over time (FIG. 3) (A4573 cells xenograft)
Nc1nccc(-c2c[nH]c3ncccc23)n1 [Meriolin 1, 3-[(2-amino)pyrimidin-4-yl]-1H-pyrrolo[2,3-b]pyridine, reference compound] | – | – | 130 | – | – | – | – | – | – | – | – | – | – | 0.67 | 2400 | –
